Measurements reported in paper PMC7844219, “Antifibrotic effect of novel neutrophil gelatinase-associated lipocalin inhibitors in cardiac and renal disease models” (Scientific Reports, 2021).

Key:
[1] = system: isolated hepatocytes from swiss mice; assay: Hepatotoxicity, thiazolyl blue tetrazolium bromide (MTT) colorimetric assay; assay type: cell-based, mouse
Method: (§1) Several parameters have been evaluated to determine ADME-Tox profile of the compounds. Two specific toxicity assays have been performed to assess hepatoxicity and cardiotoxicity. Hepatotoxicity was evaluated in isolated hepatocytes from swiss mice and determined by the thiazolyl blue tetrazolium bromide colorimetric assay (sigma, St Louis, MO, USA). Cardiotoxicity was evaluated using the commercially available Predictor hERG fluorescence polarization kit (Thermo Fisher Scientific, Illinois, USA). Several absorption, distribution, metabolism, and excretion (ADME) assays have been carried out. The following experiments were undertaken: stability in human microsomes, binding to human plasma protein, and CYP3A4 inhibition assay (Vivid CYP3A4 assay, Thermo Fisher Scientific, Illinois, USA). Physico-chemical properties were also assessed such as aqueous solubility and chemical stability.

[2] = system: human plasma protein; assay: Binding to human plasma protein; assay type: in vitro ADME
Method: as §1

[3] = biological target: T1, hNGAL (Homo sapiens, UniProt P80188); assay: hNGAL-induced intracellular profibrotic protein levels in human cardiac fibroblasts (Western blot); assay type: cell-based; parameters: % inhibition versus hNGAL on Col I protein level / % inhibition versus hNGAL on Col III protein level / % inhibition versus hNGAL on Fibronectin protein level / % inhibition versus hNGAL on Galectin 3 protein level: concentration or dose not given beside the values
T1 construct: purchased R&D Systems
Method: (§2) Primary human cardiac fibroblasts (HCF) were obtained from Promocell (Heidelberg, Germany) and maintained in Fibroblast Media 3 following manufacturer’s instructions (Promocell). Cells were used between passages 5 and 7. Cells were stimulated with recombinant hNGAL (500 ng/mL, R&D Systems) or with TGFβ (10 ng/mL, R&D Systems) for 24 h. To assess cell proliferation the MTT test was used following provider’s instructions (Roche). For protein analysis. Primary Mouse Kidney Fibroblasts (MKF) were isolated from Wild Type (WT) mice. Briefly, 8 weeks old mice were sacrificed by cervical dislocation and kidneys were cleaned and rinsed in cold DPBS (Dulbecco's Phosphate-Buffered Saline). The renal cortex was minced and incubated in Dulbecco’s modified eagle medium/Nutrient mixture F-12 (DMEM/F12, Sigma) containing 1 mg/mL collagenase A (Roche) during 25 min at 37 °C. The digestion was inactivated by adding culture medium (DMEM/F12 + 10% FBS) then the cell suspension was passed through a 100-μm cell strainer. After centrifugation, the pellet (containing MKF) was diluted with culture medium then plated in 75 cm^2 culture flask. After 24 h MKF were washed with DPBS before replacement of fresh culture medium. Thereafter, culture medium was changed every 48 h. Once 70–80% confluent, MKF were trypsinized and plated in 12 or 6-well plates. For experimental use, MKF were starved with culture medium containing only 3% FBS. MKF were treated with mNGAL (500 ng/mL, R&D Systems) or with TGFβ (10 ng/mL, R&D Systems) for 6 h for gene expression analysis.
Total protein aliquots of 20 μg were prepared from cardiac homogenates and HCF and electrophoresed on SDS polyacrylamide gels and transferred to Hybond-c Extra nitrocellulose membranes (Amersham Biosciences). Membranes were incubated with primary antibodies for: Collagen I (Santa Cruz; dilution 1:500), Collagen type III (Santa Cruz; dilution 1:500), fibronectin (Millipore, 1:500), Galectin-3 (Thermo, 1:1000), α-SMA (Sigma, 1:1000), CTGF (Santa Cruz, 1:200), CD68 (Abcam, 1:500), CD80 (Santa Cruz, 1:500), CD86 (Santa Cruz, 1:500). […] After densitometric analyses, optical density values were expressed as arbitrary units. Results are expressed as an n-fold increase over the values of the control group in densitometric arbitrary units.

[4] = biological target: T2, hERG channel (Homo sapiens, UniProt Q12809); assay: Cardiotoxicity, Predictor hERG fluorescence polarization kit; assay type: binding
T2 construct: purchased Thermo Fisher Scientific
Method: as §1

[5] = system: TGFβ-treated human cardiac fibroblasts; assay: Specificity: IL6 and Col I secretion in TGFβ-treated human cardiac fibroblasts; assay type: cell-based; conditions: 10 µM, Fig. S5
Method: as §2, with “Thereafter, culture medium was changed every 48 h. Once 70–80% confluent, MKF were trypsinized and plated in 12 or 6-well plates. For experimental use, MKF were starved with culture medium containing only 3% FBS. MKF were treated with mNGAL (500 ng/mL, R&D Systems) or with TGFβ (10 ng/mL, R&D Systems) for 6 h for gene expression analysis.” left out
(§3) IL6 and collagen type I concentrations were measured in cardiac tissue and cell supernatants by ELISA according to the manufacturer's instructions (R&D Systems).

[6] = biological target: T1, hNGAL; assay: hNGAL-induced IL6 and Col I secretion in human cardiac fibroblasts (ELISA); assay type: cell-based; parameters: % inhibition versus hNGAL on IL-6 secretion: concentration or dose not given beside the values; conditions: for IL-6 secretion: hNGAL-treated human cardiac fibroblasts, mean ± SEM
Method: as §2, §3

[7] = Table S2, human cardiac fibroblasts
[8] = 10 µM, human cardiac fibroblasts, Fig. 1C

T1 sequence (P80188 21-198): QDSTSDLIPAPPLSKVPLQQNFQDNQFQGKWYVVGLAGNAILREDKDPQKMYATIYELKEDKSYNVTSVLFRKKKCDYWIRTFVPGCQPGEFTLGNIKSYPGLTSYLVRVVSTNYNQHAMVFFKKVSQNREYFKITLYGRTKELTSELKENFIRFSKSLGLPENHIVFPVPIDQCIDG
T2 sequence (Q12809 whole entry): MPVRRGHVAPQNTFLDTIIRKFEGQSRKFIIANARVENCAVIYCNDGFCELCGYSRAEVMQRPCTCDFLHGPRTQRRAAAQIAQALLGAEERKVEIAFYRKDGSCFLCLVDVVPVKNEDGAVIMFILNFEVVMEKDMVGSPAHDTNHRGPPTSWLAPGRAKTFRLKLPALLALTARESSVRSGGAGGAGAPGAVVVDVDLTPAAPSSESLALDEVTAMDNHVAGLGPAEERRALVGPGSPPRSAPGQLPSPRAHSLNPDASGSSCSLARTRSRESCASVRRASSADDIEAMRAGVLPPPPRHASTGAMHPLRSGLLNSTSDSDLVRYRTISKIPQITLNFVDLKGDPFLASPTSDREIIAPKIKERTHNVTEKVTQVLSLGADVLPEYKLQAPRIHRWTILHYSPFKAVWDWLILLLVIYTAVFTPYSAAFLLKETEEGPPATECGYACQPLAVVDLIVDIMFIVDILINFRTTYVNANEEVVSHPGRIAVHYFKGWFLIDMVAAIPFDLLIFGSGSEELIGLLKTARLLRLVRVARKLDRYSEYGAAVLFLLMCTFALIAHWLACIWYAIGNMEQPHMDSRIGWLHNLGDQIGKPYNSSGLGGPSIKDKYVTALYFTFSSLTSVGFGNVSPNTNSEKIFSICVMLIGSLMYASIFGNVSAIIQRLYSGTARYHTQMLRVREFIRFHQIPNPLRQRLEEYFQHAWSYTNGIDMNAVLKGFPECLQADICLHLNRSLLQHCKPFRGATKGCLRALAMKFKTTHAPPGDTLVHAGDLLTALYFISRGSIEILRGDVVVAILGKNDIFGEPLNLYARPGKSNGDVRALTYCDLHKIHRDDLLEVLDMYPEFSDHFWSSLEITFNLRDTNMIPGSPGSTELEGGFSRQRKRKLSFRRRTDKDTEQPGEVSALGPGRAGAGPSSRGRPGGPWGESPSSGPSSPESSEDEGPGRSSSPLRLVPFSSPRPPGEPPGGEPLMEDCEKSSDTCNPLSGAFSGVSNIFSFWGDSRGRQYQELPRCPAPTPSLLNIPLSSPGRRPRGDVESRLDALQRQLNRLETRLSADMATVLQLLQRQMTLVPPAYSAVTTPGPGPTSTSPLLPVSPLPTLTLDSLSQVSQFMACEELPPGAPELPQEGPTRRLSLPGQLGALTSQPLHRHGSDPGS

CC(=O)c1cccc(S(=O)(=O)NCc2ccccc2-n2cccn2)c1 [GPZ614741]
Hepatotoxicity (MTT) [1]: > 0.1 mM | Hepatotoxicity ([1]; Table S5, MTT): > 100 µM | Plasma protein binding (PPB), in words [2]: low | hPPB% ([2]; Table S5, human plasma protein binding): 71.16% | hNGAL-induced expression of intracellular profibrotic proteins (Col I, Col III, fibronectin, Gal3), in words ([3]; 10 µM, human cardiac fibroblasts, Fig. 1D): blocked | Col III synthesis (protein level) ([3]; Table S2, hNGAL-treated human cardiac fibroblasts, Control 1.0, NGAL 1.67, mean ± SEM): 1.05 ± 0.1 | Fibronectin synthesis (protein level) ([3]; Table S2, hNGAL-treated human cardiac fibroblasts, Control 1.0, NGAL 1.8, mean ± SEM): 0.95 ± 0.2 | Col I synthesis (protein level) ([3]; Table S2, hNGAL-treated human cardiac fibroblasts, Control 1.0, NGAL 2.03, mean ± SEM): 1.09 ± 0.2 | Galectin-3 synthesis (protein level) ([3]; Table S2, hNGAL-treated human cardiac fibroblasts, Control 1.0, NGAL 2.1, mean ± SEM): 1.3 ± 0.1 | % inhibition versus hNGAL on Col I protein level [3, 7]: 46.4% | % inhibition versus hNGAL on Col III protein level [3, 7]: 37.1% | % inhibition versus hNGAL on Fibronectin protein level [3, 7]: 47.2% | % inhibition versus hNGAL on Galectin 3 protein level [3, 7]: 38.1% | Cardiotoxicity (hERG predictor assay), in words [4]: nontoxic | Cardiotoxicity % (100= no toxicity) ([4]; Table S5, hERG predictor assay): 101.76 ± 2.48% | Effect on TGFβ-increased IL6 and Col I secretion [5]: no inhibitory effect | Increase in IL6 secretion induced by NGAL ([6]; 1 µM, human cardiac fibroblasts, Fig. S3): did not prevent | NGAL-induced Col I secretion, in words [6, 8]: fully inhibited | NGAL-induced IL6 secretion, in words [6, 8]: fully inhibited | IL-6 secretion ([6]; Table S1, first generation compounds, Control 1.0 ± 0.1, NGAL 2.21 ± 0.2): 0.86 ± 0.2 | % inhibition versus hNGAL on IL-6 secretion ([6]; Table S1, first generation compounds, human cardiac fibroblasts): 61.1% | IL-6 secretion ([6]; Table S4, second generation compounds and parents, Control 1.00, NGAL 1.45): 0.59 ± 0.02 | % inhibition versus hNGAL on IL-6 secretion ([6]; Table S4, second generation compounds and parents, human cardiac fibroblasts): 59.5% | Inhibitor effect on hNGAL-induced IL6 secretion, in words ([6]; human cardiac fibroblasts, text on Tables S1 and S4): important inhibitor effect
